The subject of experiment [1] is mouse model of hair growth. Kind of experiment: Mouse model of hair growth, Study 10-06 (Test Two). It counts as in vivo. An excerpt:
FIGS. 6 through 8 show the results of a separate testing (Test Two) of synergistic composition of the invention in the same mouse model of hair growth, with FIG. 6 being the Vehicle, FIG. 7 being 0.03% Bimatoprost, alone, and FIG. 8 being the synergistic composition, i.e. 0.03% Bimatoprost and 5% Rogaine (minoxidil).

Experiment [2] has as its system mouse model for hair growth. Kind of experiment: Mouse model for hair growth, Study 10-04 (Test One). To be noted: compared with vehicle or single agents. The class given is in vivo. An excerpt: A comparison of topical compositions comprising bimatoprost or minoxidil, alone, and the combination of bimatoprost and minoxidil, in a single composition, with the vehicle, for onset of hair growth and full hair growth, in a mouse model for hair growth, gave the results summarized in Table 1, below, and FIG. 5.

In the case of `CCNC(=O)CCC/C=C\C[C@@H]1[C@@H](/C=C/[C@@H](O)CCc2ccccc2)[C@H](O)C[C@@H]1O` [BIMATOPROST 0.03%, cyclopentane N-ethyl heptanamide-5-cis-2-(3α-hydroxy-5-phenyl-1-trans-pentenyl)-3,5-dihydroxy, [1α,2α,3α,5α]], the “full hair growth (in words, comparison)” value in experiment [1] (compared with vehicle) and in experiment [2] was “did not obtain the result of full hair growth faster then the vehicle” in each case. The “onset of hair growth (in words, comparison)” value in experiment [1] (compared with vehicle or bimatoprost alone) and in experiment [2] was “faster onset of hair growth” throughout.

In the case of `Nc1cc(N2CCCCC2)nc(N)[n+]1[O-]` [MINOXIDIL 5%, minoxidil], in experiment [2], the “full hair growth (in words, comparison)” value is reported as “did not obtain the result of full hair growth faster then the vehicle” and the “onset of hair growth (in words, comparison)” value is listed as “faster onset of hair growth”.

(Values after patent publication US20180110711A1, “METHOD OF ENHANCING HAIR GROWTH” (Allergan, Inc., priority 2011, published 2018).)
